Read-outs that look alike come from different tables or passages of the source.
Columns and labels:
[1] = system: SARS-CoV-2; experiment: microbe, parasite or virus in culture; format: cell-based
[2] = in vitro; details: African green monkey
[3] = in vitro; details: human
[4] = system: SARS-CoV-2; experiment: SARS-CoV-2 replication inhibition in Vero E6 cells (PFU titration); details: for EC50: read-out: EC50 24 h, Vero E6, MOI 0.01, 24 hpi; for inhibition of SARS-CoV-2 replication: Vero E6, 24 hpi, 10 µM
[5] = Cytotoxicity assay, methylene blue staining, Calu-3; details: human
[6] = system: SARS-CoV-2; details: cell model not given; read-out: estimated EC50; cited from earlier work
[7] = system: SARS-CoV-2; parameters: method as in PMID 33880524; details: Calu-3-based assays, 48 hpi; cited from earlier work
[8] = system: SARS-CoV-2; parameters: method as in PMID 32759267; details: infected Vero E6 cells; cited from earlier work
[9] = Severe acute respiratory syndrome coronavirus 2, Calu-3, 24 h, read-out: EC50 24 h, Calu-3, MOI 0.01, 24 hpi
[10] = Severe acute respiratory syndrome coronavirus 2, Calu-3, 48 h, read-out: EC50 48 h, Calu-3, MOI 0.01, 48 hpi
[11] = Severe acute respiratory syndrome coronavirus 2, Calu-3, read-out: inhibition of coronavirus replication
[12] = read-out: EC50 24 h, Calu-3, MOI 0.01, 24 hpi
[13] = Severe acute respiratory syndrome coronavirus 2, 24 h, Calu-3, MOI 0.01, 24 hpi, read-out: EC50 24 h
[14] = Severe acute respiratory syndrome coronavirus 2, 48 h, Calu-3, MOI 0.01, 48 hpi, read-out: EC50 48 h
[15] = read-out: EC50 48 h, Calu-3, MOI 0.01, 48 hpi

## Cc1ccc([Se]C[C@H]2O[C@@H](n3cc(C)c(=O)[nH]c3=O)C[C@@H]2N)cc1 [R3b]
[1]; [9]
  EC50: 3.82 ± 1.42 µM
[1]; [10]
  EC50: 1.33 ± 0.35 µM
[1]; Severe acute respiratory syndrome coronavirus 2, Calu-3, read-out: inhibition of viral replication
  inhibition at 10 µM: 95%
[2]
  CC50: > 200 µM
[3]
  CC50: > 200 µM
[4]
  EC50: 2.97 ± 0.62 µM

## Cc1cn([C@H]2C[C@H](N)[C@@H](C[Te]c3cccc4ccccc34)O2)c(=O)[nH]c1=O [R3q]
[1]; [9]
  EC50: ≤ 2 µM
[1]; [11]
  inhibition at 10 µM: > 95%
[1]; [12]
  EC50: 2.03 ± 0.32 µM
other
  melting point: 134.1 to 135.6 °C
[2]
  CC50: 33.6 ± 6.9 µM
[3]
  CC50: 34.3 ± 10.2 µM
[4]
  EC50: 4.21 ± 0.43 µM

## Cc1cn([C@H]2C[C@H](N=[N+]=[N-])[C@@H](CO)O2)c(=O)[nH]c1=O [AZT, azidothymidine, reference compound]
[1]; [13]
  EC50: > 10 µM
[1]; [14]
  EC50: > 10 µM
[5]
  CC50 at 72 h: > 200 µM

## CC(C)C(=O)OC[C@H]1O[C@@H](n2ccc(NO)nc2=O)[C@H](O)[C@@H]1O [molnupiravir]
[6]
  EC50: 1.97 µM

## COc1ccc([Te]C[C@H]2O[C@@H](n3cc(C)c(=O)[nH]c3=O)C[C@@H]2N)cc1 [R3o]
[1]; [9]
  EC50: 6.18 ± 2.05 µM
[1]; [10]
  EC50: ≤ 2.57 µM
[1]; [15]
  EC50: 1.99 ± 1.73 µM
[2]
  CC50: 39.9 ± 4.4 µM
[3]
  CC50: 30.7 ± 5.6 µM
[4]
  EC50: 4.95 ± 0.64 µM

## Cc1ccc([Te]C[C@H]2O[C@@H](n3cc(C)c(=O)[nH]c3=O)C[C@@H]2N)cc1 [R3n]
[1]; [9]
  EC50: ≤ 2 µM
[1]; [10]
  EC50: ≤ 2.57 µM
[1]; [11]
  inhibition at 10 µM: > 95%
[1]; [12]
  EC50: 1.18 ± 0.61 µM
[1]; [15]
  EC50: 2.57 ± 0.62 µM
[2]
  CC50: 60.1 ± 4.4 µM
[3]
  CC50: 68.7 ± 11.4 µM
[4]
  EC50: 6.1 ± 0.41 µM

## Cc1cn([C@H]2C[C@H](N)[C@@H](C[Se]c3ccc(Cl)cc3)O2)c(=O)[nH]c1=O [R3d]
[1]; [9]
  EC50: 8.29 ± 0.82 µM
[1]; [10]
  EC50: ≤ 2.57 µM
[1]; [15]
  EC50: 2.17 ± 0.64 µM
[2]
  CC50: 98.8 ± 11.7 µM
[3]
  CC50: > 200 µM
[4]
  EC50: 1.23 ± 0.54 µM

## Cc1cn([C@H]2C[C@H](N)[C@@H](CSc3ccccc3)O2)c(=O)[nH]c1=O [R3r]
[1]; [13]
  EC50: > 10 µM
[1]; [14]
  EC50: > 10 µM
[3]
  CC50 at 72 h: > 200 µM

## Cc1cn([C@H]2C[C@H](N)[C@@H](C[Se]c3ccccc3)O2)c(=O)[nH]c1=O [R3a]
[1]; [9]
  EC50: 6.37 ± 0.58 µM
[1]; [10]
  EC50: 3.67 ± 1.57 µM
[2]
  CC50: > 200 µM
[3]
  CC50: > 200 µM
[4]
  EC50: 2.25 ± 0.43 µM

## COC(=O)N[C@H](C(=O)N1CCC[C@H]1c1nc(-c2ccc(-c3ccc(-c4c[nH]c([C@@H]5CCCN5C(=O)[C@@H](NC(=O)OC)C(C)C)n4)cc3)cc2)c[nH]1)C(C)C [daclatasvir]
[7]
  EC50: 1.1 ± 0.3 µM

## Cc1cn([C@H]2C[C@H](N)[C@@H](C[Te]c3ccccc3)O2)c(=O)[nH]c1=O [R3f]
[1]; [9]
  EC50: ≤ 2 µM
[1]; [10]
  EC50: 4.86 ± 1.31 µM
[1]; [11]
  inhibition at 10 µM: > 95%
[2]
  CC50: 52.1 ± 12.7 µM
[3]
  CC50: 44.6 ± 8.3 µM
[4]
  inhibition of SARS-CoV-2 replication: approximately 95%
  EC50: 2.67 ± 0.63 µM

## Cc1cn([C@H]2C[C@H](N)[C@@H](C[Te]c3ccc(Cl)cc3)O2)c(=O)[nH]c1=O [R3p]
[1]; [9]
  EC50: 4.33 ± 1.03 µM
[1]; [10]
  EC50: 12.7 ± 1.74 µM
[2]
  CC50: 49.7 ± 7.5 µM
[3]
  CC50: 35.2 ± 7.5 µM
[4]
  inhibition of SARS-CoV-2 replication: approximately 95%
  EC50: 4.89 ± 0.52 µM

## COc1ccc([Se]C[C@H]2O[C@@H](n3cc(C)c(=O)[nH]c3=O)C[C@@H]2N)cc1 [R3c]
[1]; [9]
  EC50: 5.17 ± 0.81 µM
[1]; [10]
  EC50: 3.43 ± 1.52 µM
[2]
  CC50: > 200 µM
[3]
  CC50: > 200 µM
[4]
  EC50: 3.31 ± 0.92 µM

## COC(=O)N[C@H](C(=O)N[C@@H](Cc1ccccc1)[C@@H](O)CN(Cc1ccc(-c2ccccn2)cc1)NC(=O)[C@@H](NC(=O)OC)C(C)(C)C)C(C)(C)C [atazanavir]
[8]
  EC50: 2 ± 0.12 µM

## Cc1cn([C@H]2C[C@H](N)[C@@H](C[Se]c3cccc4ccccc34)O2)c(=O)[nH]c1=O [R3e]
[1]; [9]
  EC50: ≤ 2 µM
[1]; [10]
  EC50: ≤ 2.57 µM
[1]; [11]
  inhibition at 10 µM: > 95%
[1]; [12]
  EC50: 1.92 ± 0.43 µM
[1]; [15]
  EC50: 2.31 ± 0.54 µM
[2]
  CC50: > 200 µM
[3]
  CC50: 156 ± 5 µM
[4]
  inhibition of SARS-CoV-2 replication: approximately 95%
  EC50: 1.99 ± 0.42 µM

From paper PMC10537738, “Antiviral Effect of 5′-Arylchalcogeno-3-aminothymidine Derivatives in SARS-CoV-2 Infection” (Molecules, 2023)
